Test: Stability of solid borate on exposure to air (1HNMR)

c1ccc(C[B-](c2ccccc2)(c2ccccc2)c2ccccc2)cc1 [MBB, monobenzyltriphenyl borate]
time to evidence of decomposition: < 10 min

Source: patent US9708349B2, “Borates for photoactivated chemical bleaching” (GENERAL ELECTRIC COMPANY, priority 2015, dated 2017)
